Values quoted from earlier work as cited in patent publication US12364989B2, “High throughput method and system for analyzing the effects of agents on planaria” (priority 2019, dated 2025).

Experiments:
planarians = settings: regenerating compared with intact animals
planaria [1] = tested on: planaria
planaria [2] = settings: Hagstrom et al., Toxicological Sciences 2015

C[S+](C)[O-] [DMSO, Dimethyl sulfoxide]
sensitivity of regenerating planarians (planarians): increased sensitivity

CN(C)C=O [N,N-dimethylformamide]
effect on auricle regeneration (planaria [1]; morphological endpoint, Zhang et al., Toxicological and Industrial Health 2013): effect

CCO [ethanol]
sensitivity of regenerating planarians (planarians): increased sensitivity

CC1(C)C(C=C(Cl)Cl)C1C(=O)OCc1cccc(Oc2ccccc2)c1 (centres unmarked) [permethrin]
eye reappearance (planaria [1]; Hagstrom et al., Toxicological Sciences 2015): did delay
blastema growth rate (planaria [2]): did not affect
